Test results as given in patent US9855250B1, “Method to treat lung cancer” (Macau University of Science and Technology, priority 2016, dated 2018).

Tests used:
H1975 cells [1] = assay: MTT cytotoxicity assay on H1975 NSCLC cells; format: cell-based; settings: Homo sapiens, NCI-H1975, H1975, EGFR L858R/T790M, 72 h treatment
Protocol: (§1) H1975 and CCD-19 Lu was purchased from ATCC (American type culture collection). H1975 was cultivated with RPMI 1640 medium supplement with 10% fetal bovine serum (Gibco, Big Cabin, Okla., ME, USA), 100 U/mL, penicillin and 100 μg/mL and streptomycin (Gibco, Big Cabin, Okla., ME, USA). CCD-19 Lu was cultivated with MEM medium supplemented with 10% FBS, 100 U/ml penicillin and 100 μg/ml streptomycin. All cells were cultivated at 37° C. in a humidified atmosphere of 5% CO2.
(§2) H1975 cells were seeded in a 96-well microplate with 3000 cells/well confluence, and put into the incubator overnight for cells adhesion. Different concentrations of the compound F321-0719 were added with Dimethyl sulfoxide (DMSO) as vehicle control. The microplates were incubated for further 72 h. Each dosage was repeated in triplicate. 10 μL of MTT (5 mg/mL) solution was added to each well. The plate was placed back into the incubator for 4 hours. After that, 100 μL of resolved solution (10% SDS and 0.1 mM HCL) was added to each well. Before dissolving the formazan crystals, the microplate was put back into the incubator for another 4 hours. The absorbance of the plate was measured at 570 nm with reference 650 nm by a microplate reader (Tecan, Morrisville, N.C., USA). Cell viability was calculated by percentages of the absorbance of the treatment group divided by the absorbance of untreated group. […]

[2] = MTT cytotoxicity assay on normal lung fibroblast CCD-19 Lu cells; format: cell-based; settings: human, CCD-19 Lu normal lung fibroblast cells, CCD-19 Lu normal lung cells, MTT
Protocol: as §1, §2

CCD-19 Lu cells = assay: as above; format: cell-based; settings: 72 h; even at concentration 20 times the IC50 on H1975 cells
Protocol: as §1, §2

AMPK = AMPK enzyme activity assay (CycLex AMPK Kinase Assay Kit); format: biochemical; settings: at 2.5 μM of the compound
Description: The CycLex AMPK Kinase Assay Kit (CycLex Co., Ltd., Nagano, Japan) was used to detect the activation of AMPK by the compound F321-0719. Compound C was used as AMPK inhibitor, and AMPK active enzyme was used as a positive control for phosphorylation.

[3] = tested on: phosphorylation of AMPK and ACC; assay: Western blot analysis of AMPK and ACC phosphorylation in H1975 cells; format: cell-based; settings: β-actin loading control
Protocol: After incubating H1975 cells with the compound F321-0719 for 24 h, H1975 cells were harvested and washed with cold 1×PBS. Then, cells were lysed with ice-cold RIPA lysis buffer with protease and phosphatase inhibitors added to extract the cell protein extraction. The supernatants were collected by centrifugation at 12,000 g, for 5 minutes. The quantitation of total protein extraction was measured by Bio-Rad DCTM protein assay kit (Bio-Rad, Philadelphia, Pa., USA). Then 30 μg of protein were loaded and electrophoretically separated on 10% SDS-PAGE gel and then transferred to Nitrocellulose (NC) membrane. Membranes were blocked with 5% non-fat milk and […] containing 0.1% Tween-20 (TBST) for 1 hour at room temperature. After 1 hour, membranes were incubated with primary antibodies (1:1000 dilution) against β-actin, total/phosphor-ACC, total-AMPK, and against phosphor-AMPK, at 4° C. with gently shaking overnight. Membranes were washed with TBST for 3 times (5 minutes/time), and incubated with secondary fluorescent antibody (1:10000 dilutions) for 1 hour at room temperature. Rewashing with TBST for 3 times (15 minutes/time), the stripes were visualized by LI-COR Odessy scanner (Belfast, Me., USA).

H1975 cells [4] = assay: Apoptosis assay (Annexin-V FITC/PI flow cytometry) in H1975 cells; format: cell-based; settings: 48 h treatment, vs control group
Protocol: H1975 cells (1×10^5 cells/well) were seeded in a 6-well plate for 24 h, and treated with the indicated concentrations of the compound F321-0719 for an additional 48 h at 37° C. After 48 h, the cells were washed by ice-cold 1×PBS (Phosphate-buffered saline) once and harvested by trypsination. Then cells were centrifuged, collected and re-suspended in ice-cold 1×PBS. After removing the supernatants, cell pellets were re-suspended in 100 μL 1× Annexin-binding buffer. The cells were then double-stained with Annexin-V FITC and PI (100 μg/mL) of 2 μL respectively for 15 min at room temperature in dark. After that, 300 μL 1× Annexin-binding buffer was added. Apoptotic cells were quantitatively counted by a BD Aria III Flow Cytometer (BD Biosciences, San Jose, Calif., USA).

H1975 cells [5] = assay: Cell cycle analysis (PI staining, flow cytometry) in H1975 cells; format: cell-based; settings: 5 μM and 10 μM, 48 h
Protocol: H1975 cells were plated with 1.5×10^5 cells/well at a 6-well plate and cultured overnight for attachment. Cells were treated with the compound F321-0775 at 0, 2.5, 5, 10 μM for 48 h. After treatment, all cells were harvested by trypsinization, and collected by centrifugation. After removing all suspension, cells were washed by PBS. Cells pellets were re-suspended in 70% ethanol at 4° C. overnight. Cells were centrifuged at 1000 rpm for 5 min to remove all the ethanol. Each cell pellet was re-suspended in 500 μl PI staining solution at 37° C. for 30 min in dark. Then, they were washed in PBS twice. Cells were re-suspended in 300 μl 1× binding buffer and transferred to the flow cytometer (BD FACS Aria III).

AMPK enzyme activity (fold of AMPK kinase group) (AMPK): enhanced
SMILES: O=C(Nc1cccc(-c2noc(C3CCCC3)n2)c1)c1cc2ccccc2[nH]1 [F321-0719]
IC50 (H1975 cells [1]): 3.46 ± 1.71 µM
IC50 at 72 h [2]: > 100 µM
cytotoxicity on CCD-19 Lu cells (CCD-19 Lu cells): no cytotoxicity
phosphorylation of AMPK and ACC (western blot) [3]: activated phosphorylation of both AMPK and ACC in a dose-dependent manner
apoptosis level (H1975 cells [4]): induced significant level of apoptosis in a concentration-dependent manner
G2 phase of cell cycle distribution (H1975 cells [5]): increased
